Data published in PubChem BioAssay (NCI).
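96-well plates; 48 h exposure; 5 concentrations. Endpoints by linear interpolation between flanking doses. Not reached: highest tested concentration assigned. TGI is the concentration that stops growth completely.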

Legend:
Experiment in all cases: NCI anticancer screen, dose series, 48 h
SN12C renal = system: SN12C renal
MDA-MB-231 breast = system: MDA-MB-231 breast
NCI/ADR-RES ovarian = system: NCI/ADR-RES ovarian
A549 NSCLC = system: A549 NSCLC
SK-MEL-2 melanoma = system: SK-MEL-2 melanoma
NCI-H460 lung = system: NCI-H460 lung
UACC-257 melanoma = system: UACC-257 melanoma
RXF 393 renal = system: RXF 393 renal
ACHN renal = system: ACHN renal
K-562 leukemia = system: K-562 leukemia
PC-3 prostate = system: PC-3 prostate
HOP-62 NSCLC = system: HOP-62 NSCLC
LOX IMVI melanoma = system: LOX IMVI melanoma
EKVX NSCLC = system: EKVX NSCLC
HT29 colon = system: HT29 colon
SNB-19 CNS = system: SNB-19 CNS
OVCAR-5 ovarian = system: OVCAR-5 ovarian
786-0 renal = system: 786-0 renal
SW-620 colon = system: SW-620 colon
SF-268 CNS = system: SF-268 CNS
MCF7 breast = system: MCF7 breast
A498 renal = system: A498 renal
SK-MEL-28 melanoma = system: SK-MEL-28 melanoma
NCI-H522 lung = system: NCI-H522 lung
NCI-H226 lung = system: NCI-H226 lung
BT-549 breast = system: BT-549 breast
T-47D breast = system: T-47D breast
OVCAR-8 ovarian = system: OVCAR-8 ovarian
SF-539 CNS = system: SF-539 CNS
M14 melanoma = system: M14 melanoma
DU-145 prostate = system: DU-145 prostate
TK-10 renal = system: TK-10 renal
U251 CNS = system: U251 CNS
HCT-116 colon = system: HCT-116 colon
MDA-MB-435 = system: MDA-MB-435
HL-60(TB) leukemia = system: HL-60(TB) leukemia
SF-295 CNS = system: SF-295 CNS
CAKI-1 renal = system: CAKI-1 renal
SK-OV-3 ovarian = system: SK-OV-3 ovarian
HS 578T breast = system: HS 578T breast
OVCAR-3 ovarian = system: OVCAR-3 ovarian
UACC-62 melanoma = system: UACC-62 melanoma
RPMI-8226 leukemia = system: RPMI-8226 leukemia
NCI-H23 lung = system: NCI-H23 lung
HCT-15 colon = system: HCT-15 colon
CCRF-CEM leukemia = system: CCRF-CEM leukemia
MOLT-4 leukemia = system: MOLT-4 leukemia
HOP-92 NSCLC = system: HOP-92 NSCLC
OVCAR-4 ovarian = system: OVCAR-4 ovarian
IGROV1 ovarian = system: IGROV1 ovarian
COLO 205 colon = system: COLO 205 colon
MALME-3M melanoma = system: MALME-3M melanoma
SNB-75 CNS = system: SNB-75 CNS
UO-31 renal = system: UO-31 renal
SK-MEL-5 melanoma = system: SK-MEL-5 melanoma
KM12 colon = system: KM12 colon

C=C1CC2(CCCC3(CC(=C)C(=O)O3)C2(C)C)OC1=O (stereo unspecified)
TGI (SN12C renal): 10.7 µM | TGI (MDA-MB-231 breast): 17.7 µM | TGI (NCI/ADR-RES ovarian): 27.9 µM | TGI (A549 NSCLC): 28.9 µM | TGI (SK-MEL-2 melanoma): 27.7 µM | TGI (NCI-H460 lung): 46.3 µM | TGI (UACC-257 melanoma): 5.78 µM | TGI (RXF 393 renal): 31 µM | TGI (ACHN renal): 2.4 µM | TGI (K-562 leukemia): 13.7 µM | TGI (PC-3 prostate): 21.1 µM | TGI (HOP-62 NSCLC): 30.8 µM | TGI (LOX IMVI melanoma): 3.77 µM | TGI (EKVX NSCLC): 18.4 µM | TGI (HT29 colon): 15 µM | TGI (SNB-19 CNS): 32.9 µM | TGI (OVCAR-5 ovarian): 3.33 µM | TGI (786-0 renal): 11.4 µM | TGI (SW-620 colon): 4.26 µM | TGI (SF-268 CNS): 55.5 µM | TGI (MCF7 breast): 63.7 µM | TGI (A498 renal): 41.9 µM | TGI (SK-MEL-28 melanoma): 4.61 µM | TGI (NCI-H522 lung): 3.7 µM | TGI (NCI-H226 lung): 6.57 µM | TGI (BT-549 breast): 17 µM | TGI (T-47D breast): 21.3 µM | TGI (OVCAR-8 ovarian): 7.55 µM | TGI (SF-539 CNS): 11.4 µM | TGI (M14 melanoma): 8.58 µM | TGI (DU-145 prostate): 15.8 µM | TGI (TK-10 renal): 6.31 µM | TGI (U251 CNS): 4.56 µM | TGI (HCT-116 colon): 5.22 µM | TGI (MDA-MB-435): 10.1 µM | TGI (HL-60(TB) leukemia): 5.65 µM | TGI (SF-295 CNS): 33.8 µM | TGI (CAKI-1 renal): 7.43 µM | TGI (SK-OV-3 ovarian): 46.2 µM | TGI (HS 578T breast): 58 µM | TGI (OVCAR-3 ovarian): 6.78 µM | TGI (UACC-62 melanoma): 4.65 µM | TGI (RPMI-8226 leukemia): 3.57 µM | TGI (NCI-H23 lung): 12.1 µM | TGI (HCT-15 colon): 1.99 µM | TGI (CCRF-CEM leukemia): 5.74 µM | TGI (MOLT-4 leukemia): 1.03 µM | TGI (HOP-92 NSCLC): 19.3 µM | TGI (OVCAR-4 ovarian): 20.2 µM | TGI (IGROV1 ovarian): 23.5 µM | TGI (COLO 205 colon): 4.61 µM | TGI (MALME-3M melanoma): 3.61 µM | TGI (SNB-75 CNS): 34.4 µM | TGI (UO-31 renal): 9.53 µM | TGI (SK-MEL-5 melanoma): 31.8 µM | TGI (KM12 colon): 21.8 µM
